{
  "source": "patent US20070060655A1",
  "about": "“Use of agomelatine in obtaining medicaments intended for the treatment of sleep disorders in the depressed patient” (LES LABORATOIRES SERVIER, priority 2005, published 2007)",
  "assay_type_in_all_cases": "in vivo, human",
  "key": {"[1]": {"tested_on": "sleep disorders in the depressed patient", "assay": "double-blind clinical study over 6 weeks in comparison with mirtazapine, polysomnographic recording of sleep", "settings": "6 weeks of treatment", "source_text": "The action specific to agomelatine on sleep disorders in the depressed patient is established in comparison with mirtazapine. This study, carried out as a double-blind over 6 weeks of treatment, has, as its principal criterion of efficacy, the polysomnographic recording of sleep. The Hamilton Scale of Depression allows the antidepressant efficacy to be documented."}, "[2]": {"tested_on": "patients with a characterised depressive state", "assay": "double-blind clinical study over 6 weeks compared with venlafaxine (Hamilton Scale of Depression, Leeds Sleep Evaluation Questionnaire)", "description": "Another study evaluating sleep improvement was carried out in patients with a characterised depressive state as a double blind over 6 weeks compared with venlafaxine. After one week placebo, 332 patients were randomised: 165 received 25 mg/day of agomelatine and 167 received 75 mg/day of venlafaxine for 2 weeks. After 2 weeks of treatment, if clinical improvements obtained were found insufficient, the doses for some patients were doubled to 50 mg/day of agomelatine or 150 mg/day of venlafaxine for the following weeks."}, "[3]": {"tested_on": "patients with a characterised depressive state", "assay": "pilot study of sleep polysomnographic parameters in 15 patients", "settings": "agomelatine 25 mg; polysomnography", "description": "Lastly, effects of agomelatine on the sleep polysomnographic parameters were evaluated in a pilot study carried out in 15 patients with a characterised depressive state. […] Furthermore, agomelatine increase the total duration of sleep, reduce the number of nocturnal wakenings, and as a consequence improve sleep efficacy."}, "[4]": {"settings": "versus venlafaxine, p less than or equal to 0.001"}},
  "data": [
    {"smiles": "COc1ccc2cccc(CCNC(C)=O)c2c1", "note": "[agomelatine, N-[2-(7-methoxy-1-naphthyl)ethyl]acetamide]", "values": [
      {"measurement": "efficacy in the treatment of sleep disorders in the depressed patient (polysomnographic recording of sleep)", "setting": "[1]", "value": "especially effective"},
      {"measurement": "antidepressant efficacy (Hamilton Scale of Depression)", "setting": "[2]; agomelatine 25 mg/day (up to 50 mg/day) versus venlafaxine 75 mg/day (up to 150 mg/day), 6 weeks", "value": "comparable efficacy of agomelatine versus venlafaxine"},
      {"measurement": "\"sensation of well-being\"", "setting": "[2]; [4]", "value": "equally significant improvement"},
      {"measurement": "\"sleepiness during the day\"", "setting": "[2]; [4]", "value": "equally significant improvement"},
      {"measurement": "LSEQ item \"quality of sleep\" (QOS)", "setting": "[2]; versus venlafaxine, p=0.015", "value": "appreciably greater efficacy"},
      {"measurement": "LSEQ item \"ease of getting to sleep\" (GTS)", "setting": "[2]; versus venlafaxine, significant difference from the first week (p=0.007), continuing during the 6 weeks", "value": "more important and faster to appear than for venlafaxine"},
      {"measurement": "REM (rapid eye movements) sleep", "setting": "[3]", "value": "without alteration"},
      {"measurement": "absolute and relative durations of cycles 3 and 4 of the recording of the electroencephalographic activity", "setting": "[3]", "value": "significantly improved"},
      {"measurement": "number of nocturnal wakenings", "setting": "[3]", "value": "reduce"},
      {"measurement": "onset of the beneficial effects on sleep", "setting": "[3]", "value": "from the first week of treatment"},
      {"measurement": "sleep efficacy", "setting": "[3]", "value": "improve"},
      {"measurement": "sleep physiological structure", "setting": "[3]", "value": "Restoration of the sleep physiological structure was observed"},
      {"measurement": "total duration of sleep", "setting": "[3]", "value": "increase"}
    ]}
  ]
}
